Tests used:
PSA = assay: Phase 1/2 trial in mCRPC: PSA response; type: in vivo, human
Experimental: Evaluable analysis set include all Compound A treated participants with baseline PSA assessment and at least a C1D28 or later postbaseline PSA assessment. A PSA90 and PSA50 and PSA30 response is defined as a =90% or 50% or 30% decline in PSA from baseline PSA value, respectively.
Patients in the Phase 1 studies were administered from 40 mg to 500 mg Compound A once daily. Patients in the Phase 2 studies were administered 100 mg or 300 mg Compound A once daily.
In the Phase 1 and interim Phase 2 trial, AR LBD mutations were present in 28% (13 of 47) of patients' tumors. […] (FIG. 7; AR: androgen receptor; LBD: ligand-binding domain; PSA: prostate-specific antigen; PSA30: best PSA declines ≥30%; PSA50: best PSA declines ≥50%; H875: H875Y; T878: T878A or T878S.)
Evaluable analysis set include all Compound A treated participants with baseline PSA assessment and at least a C1D28 or later postbaseline PSA assessment. A PSA90 and PSA50 and PSA30 response is defined as =90% or 50% or 30% decline in PSA from baseline PSA value.

prostate = assay: 10-day prostate involution study in rats; type: in vivo, rat; settings: for Mean (±SEM) prostate weights: 10 days, intact rats
Experimental: Enzalutamide and Compound A were orally administered once daily at the indicated doses. After 10 days of treatment, the prostate tissue from each rat was isolated and weighed. Treatment groups (n=5 per group) were compared by one way ANOVA. Note: ns: not significant, *: p<0.05, **: p≤0.01.
To substantiate the on-target mechanism of Compound A, a prostate involution study was conducted in rats. […] Twenty-four hours after the last dose, the rats were euthanized, and the prostate organs were isolated and weighed.

[1] = test system: mutant AR proteins (ligand binding domain mutations); assay: degradation of clinically relevant AR point mutants in HEK293 or T-REx-293 cells; type: cell-based, human; settings: stably transfected
Experimental: Plasmids expressing AR WT or the indicated AR mutants were stably transfected into HEK293 cells. Each cell line was treated with indicated concentrations of Compound A for 24 hours. AR levels were determined by AR ELISA without background subtraction. […]
(§1) To assess the ability of Compound A to degrade variants of the AR, vectors expressing wild-type AR or mutant AR proteins harboring clinically observed mutations in the ligand binding domain (13 with single amino acid changes or 4 with 2 amino acid changes) (Azad A. A., Volik S. V., Wyatt A. W., et al. Androgen receptor gene aberrations in circulating cell-free DNA: biomarkers of therapeutic resistance in castration-resistant prostate cancer. Clin Cancer Res. 2015; 21:2315-2324; Robinson D., Van Allen E. M., Wu Y. M., et al. Integrative clinical genomics of advanced prostate cancer. Cell. 2015; 161:1215-1228; Ledet E. M., Lilly M. B., Sonpavde G., et al. Comprehensive analysis of AR alterations in circulating tumor DNA from patients with advanced prostate cancer. Oncologist.

AR = target: T1, AR (Homo sapiens, UniProt P10275); assay: selectivity screening panel: AR binding; settings: 1 μM
T1 sequence (P10275 1-920): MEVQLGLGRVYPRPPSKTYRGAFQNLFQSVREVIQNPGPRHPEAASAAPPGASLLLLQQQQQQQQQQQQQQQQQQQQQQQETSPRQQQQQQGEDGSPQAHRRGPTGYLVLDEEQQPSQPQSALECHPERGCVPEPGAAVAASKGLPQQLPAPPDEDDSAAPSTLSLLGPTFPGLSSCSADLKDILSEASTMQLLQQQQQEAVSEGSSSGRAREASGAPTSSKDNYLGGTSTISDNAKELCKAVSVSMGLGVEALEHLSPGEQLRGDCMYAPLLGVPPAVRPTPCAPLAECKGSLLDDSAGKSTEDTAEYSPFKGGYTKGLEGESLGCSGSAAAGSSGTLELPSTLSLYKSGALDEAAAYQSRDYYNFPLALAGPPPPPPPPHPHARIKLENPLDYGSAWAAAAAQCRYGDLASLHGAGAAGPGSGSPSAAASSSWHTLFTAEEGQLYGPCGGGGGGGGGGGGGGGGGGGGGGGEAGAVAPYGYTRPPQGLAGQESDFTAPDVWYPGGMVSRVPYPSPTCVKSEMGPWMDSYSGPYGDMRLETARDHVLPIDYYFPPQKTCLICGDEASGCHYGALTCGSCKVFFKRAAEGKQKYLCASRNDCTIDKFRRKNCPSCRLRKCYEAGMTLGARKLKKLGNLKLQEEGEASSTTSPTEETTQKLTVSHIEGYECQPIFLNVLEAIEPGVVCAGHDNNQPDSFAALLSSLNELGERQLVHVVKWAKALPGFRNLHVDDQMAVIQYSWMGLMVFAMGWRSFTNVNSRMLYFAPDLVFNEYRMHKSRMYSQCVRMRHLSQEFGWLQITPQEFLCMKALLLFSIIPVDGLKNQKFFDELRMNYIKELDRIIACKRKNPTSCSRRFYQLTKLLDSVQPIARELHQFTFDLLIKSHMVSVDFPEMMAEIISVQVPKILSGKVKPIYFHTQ
Experimental: Compound A was tested at 1 μM in a screening study to assess the interaction of Compound A with a panel of 44 targets, including receptors, ion channels, transporters, and enzymes. Any effect greater than 50% of the positive control for a target was considered to represent an interaction of the test compound with the target.

AR S889G = target: T2, AR S889G (Homo sapiens, UniProt P10275, S889G); assay: AR degradation in T-Rex-293 cell line, S889G; type: cell-based; settings: T-Rex-293, ELISA
T2 construct: expressed in transfected cells; host or cells: T-REx-293
T2 sequence (P10275 whole entry S889G): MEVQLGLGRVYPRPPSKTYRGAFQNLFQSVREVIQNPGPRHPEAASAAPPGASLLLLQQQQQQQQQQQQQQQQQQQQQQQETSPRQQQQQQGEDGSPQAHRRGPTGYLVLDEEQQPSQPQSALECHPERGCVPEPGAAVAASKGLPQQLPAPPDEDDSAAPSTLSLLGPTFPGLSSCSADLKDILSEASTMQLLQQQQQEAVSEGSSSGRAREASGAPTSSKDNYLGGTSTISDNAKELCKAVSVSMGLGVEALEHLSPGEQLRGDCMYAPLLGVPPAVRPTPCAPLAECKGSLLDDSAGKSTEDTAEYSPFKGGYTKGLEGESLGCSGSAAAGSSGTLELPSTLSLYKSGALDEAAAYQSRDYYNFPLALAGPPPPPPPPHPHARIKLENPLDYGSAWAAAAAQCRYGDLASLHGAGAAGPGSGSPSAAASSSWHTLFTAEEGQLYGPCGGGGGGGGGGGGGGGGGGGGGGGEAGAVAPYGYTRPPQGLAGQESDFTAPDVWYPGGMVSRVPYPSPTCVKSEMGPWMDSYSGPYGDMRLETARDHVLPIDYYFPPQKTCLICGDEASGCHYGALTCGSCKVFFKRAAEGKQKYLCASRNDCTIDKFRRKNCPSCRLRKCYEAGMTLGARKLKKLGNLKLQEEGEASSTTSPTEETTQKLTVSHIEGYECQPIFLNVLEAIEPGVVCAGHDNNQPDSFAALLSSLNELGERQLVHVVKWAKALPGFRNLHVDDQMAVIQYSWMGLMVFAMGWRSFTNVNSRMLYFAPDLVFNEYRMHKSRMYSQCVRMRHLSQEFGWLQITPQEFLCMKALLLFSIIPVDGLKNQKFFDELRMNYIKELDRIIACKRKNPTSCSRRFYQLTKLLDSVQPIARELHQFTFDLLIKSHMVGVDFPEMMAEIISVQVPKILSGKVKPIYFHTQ
Text: FIG. 3 is a graph showing Compound A's ability to degrade clinically relevant mutated forms AR.
as §1

In the case of `COc1cc(O[C@H]2C(C)(C)[C@H](NC(=O)c3ccc(N4CCC(CN5CCN(c6ccc(C(=O)N[C@H]7CCC(=O)NC7=O)c(F)c6)CC5)CC4)cc3)C2(C)C)ccc1C#N` [Compound A, 4-(4-((1-(4-(((1R,3R)-3-(4-cyano-3-methoxyphenoxy)-2,2,4,4-tetramethylcyclobutyl)carbamoyl)phenyl)piperidin-4-yl)methyl)piperazin-1-yl)-N—((S)-2,6-dioxopiperidin-3-yl)-2-fluorobenzamide], the “PSA decline in patient with mCRPC with wild-type AR” value (PSA; FIG. 14) is reported as “Deep PSA decline”, the “patients with AR LBD mutations achieving PSA50” value (PSA; Phase 1 and interim Phase 2) is reported as 42% and the “patients with AR LBD mutations achieving PSA50” value (PSA; as the trial progressed, 7 of 17) is reported as 41%. For the same molecule, the “Mean (±SEM) prostate weights” value (prostate; 5 mg/kg/day orally) was 673+105 mg, the “Mean (±SEM) prostate weights” value (prostate; 15 mg/kg/day orally) was 384 ± 47 mg and the “Mean (±SEM) prostate weights” value (prostate; 45 mg/kg/day orally) was 422 ± 56 mg. The “prostate weight reduction compared with enzalutamide” value (prostate; all doses tested (5, 15, 45 mg/kg/day)) was “reduced prostate weights to a greater degree at all doses tested”, the “degradation of all clinically relevant AR point mutants tested vs wild-type AR” value [1] was “comparable to that observed for wild-type AR” and the “binding to AR, % of positive control testosterone” value (AR) was 98.6%. It also gave a DC50 (AR S889G) of 3.1 nM.
